Strand notation (5' to 3'): a small letter for the sugar, then the base; units joined by * are phosphorothioate-linked, units joined directly phosphodiester-linked; [ ] holds rarer units or linkages, { } end groups; capitals alone tell only the bases. d = 2'-deoxy (DNA)
Experiments:
[1] = test system: In vitro transcribed HBV RNA (adw strain); assay: RNase H cleavage assay with contiguous oligodeoxynucleotide phosphorothioates (FIG. 2); format: biochemical, hepatitis B virus; settings: end-labelled HBV RNA (adw), regions found with random 20mer library
Protocol: To determine whether an oligonucleotide of the invention is capable of successfully hybridizing to its target, an RNase H assay was performed (Frank et al. (1993) Proc. Int. Conf. Nucleic Acid Med. Applns. 1:4.14(abstract)). This assay is useful when a region of at least four contiguous nucleotides of the oligonucleotide is DNA and the target is RNA. Hybridization of the DNA portion of the oligonucleotide to the RNA target is identified by cleavage at that site by RNase H.
In vitro transcribed HBV RNA (adw strain) was probed for sites accessible to oligonucleotide hybridization using a randomized library of 20 base oligodeoxynucleotides (approximately […]). Hybridization to the RNA was detected by RNase H cleavage of the end-labelled transcript. Three regions were identified by this assay. One region was in the 5′ untranslated region, between 113 and 70 bases upstream from the core initiator, and two regions were in the coding regionfor core, between 78 and 174 bases downstream from the core initiator. Contiguous oligodeoxynucleotide phosphorothioates were prepared against these regions and their ability to activate RNase H cleavage of the transcript measured.
The plasmid pHBVE+was generated by subcloning a StuI, BamHI fragment from the plasmid pAM6 (ATCC Ac. No. 45020, American Type Culture Collection, Rockville, Md.), representing HBV subtype adw nt 1701-nt 34 (GenBank accession # V00866) (Ono et al. (1983) Nucleic Acids Res. 11:1747–1757), into pBluescript II SK(+) (Stratagene, La Jolla, Calif.). […]
In 9 μl 1× RNase H buffer (40 mM Tris-HCl pH 7.4, 4 mM MgCl2, 1 mM DTT), 20–100 nM labelled RNA and 100 nM oligonucleotides were preincubated for 15 min at 37° C. […] The reactions were quenched and analyzed as described above.
Quantitation of the cleavage products was performed using software supplied with the Phosphorimager (Molecular Dynamics, Sunnyvale, Calif., or Bio-Rad Laboratories, Hercules, Calif.). “Counts” were determined by drawing a box around the band of interest and subtracting the background determined with a box drawn nearby. […]

[2] = test system: HBV genomes in the supernatants from HepG2.2.15 cells; assay: Kinetic PCR HBV anti-viral assay on supernatants from HepG2.2.15 cells; format: cell-based, hepatitis B virus; settings: copy number of HBV genomes in HepG2.2.15 supernatants, day 10
Protocol: In addition to Southern hybridizations, kinetic PCR was performed to assay the supernatants from the HepG2.2.15 cells. This procedure was carried out as described by Higuchi et al. (Biotechnol. (1993) 11:1026–1030). All PCRs were carried out with two sets of external controls which consisted of a dilution series of a known concentration of plasmid DNA that contained the HBV core gene amplified with the same primer set. These controls generated a standard curve that was used to calculate the copy number of HBV genomes in the supernatants from cells exposed to the various dilutions of compound.
The anti-viral assay was performed using HepG 2.2.15 cells (Sells et al. ([…]) Proc. Natl. Acad. Sci. (USA) 84:1005–1009) seeded at a density of 1×10^5 per well in 24 well plates. The cells were grown to confluence and allowed to stabilize for 2–3 days in RPMI media (supplemented with 10% fetal calf serum (FCS), 2 mM glutamine and penstrep (Life Technologies Ltd., Paisley, Scotland) prior to the addition of the oligonucleotide (defined as day 0). Six dilutions (10, 5, 1, 0.5, 0.1, and 0 μM) were set up in duplicate for each of the antisense oligonucleotides. In each assay run, the nucleoside analog, β-L-(2R,5S)-1,3 oxathiolanyl cytosine (3TC) (Glaxo, Greenford, U.K.) was included as positive control at 0.5, 0.1, 0.075, 0.05, and 0.01 and 0 μM in duplicate. Oligonucleotide was added to 1 ml of RPMI media (supplemented with 3% FCS, 2 mM glutamine and penstrep) at each of the indicated dilutions. At days 2, 4 and 7, the old media was removed and replaced with fresh media containing compound. At day 10, the supernatants were harvested, clarified by low speed centrifugation, prior to the addition of Triton X100 (Sigma, St. Louis, Mo.) and tri-n-butyl phosphate to give a final concentration of 1%. The samples were then heated to 70° C. for 20 minutes to disrupt the viral particles.
Following this treatment, the viral particles were subject to analysis by kinetic PCR. The primers RJ407 (SEQ ID NO:51) and RJ431 (SEQ ID NO:52) were used to detect a 205 bp fragment of the core gene. Kinetic PCR was performed essentially as described by Higuchi et al. (Biotechnol. (1993) 11:1026–1030). Briefly, the PCR reactions were set up under standard conditions except that ethidium bromide was included at a concentration of 4 μg/ml. […] A kinetic PCR analysis was performed by plotting the average intensity of fluorescence from each PCR sample after each annealing/extension cycle against the cycle number. The original template concentration can be calculated by utilizing a standard fluorescence curve generated by templates of known concentration.

[3] = test system: HBV subtype ayw polymerase gene-luciferase fusion construct; assay: Firefly luciferase reporter gene assay in stably transfected HepG2 cells (pol-luciferase fusion); format: cell-based; settings: versus random 20mer PS negative control, FIG. 9
Protocol: Oligonucleotides targeted to the polymerase translation initiation region were also tested in mammalian cells using a firefly luciferase reporter gene assay. The 35 nucleotide region spanning the translation start site of the HBV ayw polymerase gene from nt 2294–2328 was cloned 5′ to, and in frame with, the entire open reading frame of the firefly luciferase gene in the plasmid pGLori, to produce the plasmid pGLpol (FIG. 10). Transcription of this pol-luciferase gene fusion was placed under the control of the cytomegalovirus early gene promoter. Expression of the pol-luciferase fusion in mammalian cells was quantified in a luminometer by addition of luciferin substrate and ATP cofactor to cell lysates. In all cellular antisense assays, a random sequence 20mer phosphorothioate oligonucleotide (random 20mer PS) was used as a negative control. […]
Stably transfected HepG2 cells were seeded into 96 well plates. […] Cells were washed twice with Dulbecco's phosphate-buffered saline (PBS) and lysed in 50 μl cell lysis buffer (Analytical Luminescence Laboratory, San Diego, Calif.). Luciferase activity was measured in 20 μl lysate using Analytical Luminescence Laboratory substrates in a MicroLumat LB 96 P luminometer (EG&G Berthold, Nashua, N.H.).

Sequence | ability to activate RNase H cleavage of the transcript [1] | IC50 [2] [nM] | antisense activity on luciferase expression [3]
GCAGTATGGTGAGGTGAGCA (antisense dG*dC*dA*dG*dT*dA*dT*dG*dG*dT*dG*dA*dG*dG*dT*dG*dA*dG*dC*dA) [HBV41] | single peaks of activity |  | 
GATAGGGGCATTTGGTGGTC (phosphorothioate, further chemistry not given here) [HBVpol-2] |  | 3700 | had sequence-specific antisense activity
GAGGCGGTGTCTAGGAGATC (antisense dG*dA*dG*dG*dC*dG*dG*dT*dG*dT*dC*dT*dA*dG*dG*dA*dG*dA*dT*dC) [HBV57] | single peaks of activity |  | 
GGCATTTGGTGGTCTATAAG (antisense dG*dG*dC*dA*dT*dT*dT*dG*dG*dT*dG*dG*dT*dC*dT*dA*dT*dA*dA*dG) [HBVpol-1] |  |  | had sequence-specific antisense activity
GAAAAAGTTGCATGGTGCTG (antisense dG*dA*dA*dA*dA*dA*dG*dT*dT*dG*dC*dA*dT*dG*dG*dT*dG*dC*dT*dG) [HBV44] | single peaks of activity | 700 | 
